Data taken from ChEMBL document CHEMBL5338712, “Influence of chain length on the anticancer activity of the antimicrobial peptide CAMEL with fatty acid modification” (Eur J Med Chem, 2022).
Values after ≈ are worked out from the molar mass of the structure shown. Each block holds one compound with its values, some of them ahead of it. Active and inactive are the calls of the source. No cut-off for these calls is given here. Where a SMILES comes first, the peptide text is derived from it. The star is where a group is joined. Decanoyl = CCCCCCCCCC(=O)*; Cbz = O=C(OCc1ccccc1)*; Butyryl = CCCC(=O)*; CH2F = FC*

Experiments:
Escherichia coli = test: Antibacterial activity against Escherichia coli ATCC 25922 assessed as reduction in bacterial growth measured for 18 hrs by serial dilution method; type: functional
B16-F10 [1] = test: Cytotoxicity against mouse B16-F10 cells assessed as reduction in cell viability measured after 1 hrs by MTT assay; type: functional, cell-based; conditions: dose 1.25-20 µM
B16-F10 [2] = test: Cytotoxicity against mouse B16-F10 cells assessed as reduction in cell viability at 1.25 to 20 uM measured after 24 hrs by MTT assay; type: functional, cell-based; conditions: dose 1.25-20 µM
Staphylococcus aureus = test: Antibacterial activity against Staphylococcus aureus ATCC […] assessed as reduction in bacterial growth measured for 18 hrs by serial dilution method; type: functional
trypsin = trypsin (Homo sapiens, UniProt P07477+P07478+P35030); test: Stability of compound assessed as trypsin (unknown origin)-mediated compound degradation measured upto 6 hrs by RP-HPLC analysis; type: ADME, protein assay; conditions: trypsin (enzyme solution), read-out: Drug degradation
B16-F10 [3] = test: Membrano-lytic activity in mouse B16-F10 cell membrane measured after 1 hr by LDH leakage assay; type: cell-based; conditions: dose 1.25-20 µM
B16-F10 [4] = test: Membrano-lytic activity in mouse B16-F10 cell membrane at 1.25 to 20 uM measured after 1 hr by LDH leakage assay; type: cell-based; conditions: dose 1.25-20 µM
B16-F10 [5] = test: Cytotoxicity against mouse B16-F10 cells assessed as induction of cell death measured for 4 to 24 hrs by MTT assay; type: functional, cell-based; conditions: time 4-24 hrs
[6] = Self-assembly behavior of compound in saline solution assessed as critical micelle concentration by spectrophotometer analysis; type: physicochemical; conditions: buffer

MIC (Escherichia coli): 4 µM (≈ 7.36 µg/mL) | MIC (Staphylococcus aureus): 2 µM (≈ 3.68 µg/mL) | metabolised at 6 h (trypsin): 100%
Structure (SMILES): CCCC(=O)N[C@@H](CCCCN)C(=O)N[C@@H](Cc1c[nH]c2ccccc12)C(=O)N[C@@H](CCCCN)C(=O)N[C@@H](CC(C)C)C(=O)N[C@@H](Cc1ccccc1)C(=O)N[C@@H](CCCCN)C(=O)N[C@@H](CCCCN)C(=O)N[C@H](C(=O)NCC(=O)N[C@@H](C)C(=O)N[C@H](C(=O)N[C@@H](CC(C)C)C(=O)N[C@@H](CCCCN)C(=O)N[C@H](C(=O)N[C@@H](CC(C)C)C(N)=O)C(C)C)C(C)C)[C@@H](C)CC (Butyryl-KWKLFKKIGAVLKVL-NH2)
Activity (B16-F10 [1]): Dose-Dependent Effect | Activity (B16-F10 [2]): Active | Activity (B16-F10 [3]): Dose-Dependent Effect | Activity (B16-F10 [4]): Active

Structure (SMILES): COC(=O)C[C@H](NC(=O)[C@H](C)NC(=O)[C@@H](NC(=O)OCc1ccccc1)C(C)C)C(=O)CF (Cbz-Val-Ala-Asp(OMe)-CH2F)
Activity (B16-F10 [5]): Active

CMC [6]: 32.61 µM
Structure (SMILES): CCCCCCCCCC(=O)N[C@@H](CCCCN)C(=O)N[C@@H](Cc1c[nH]c2ccccc12)C(=O)N[C@@H](CCCCN)C(=O)N[C@@H](CC(C)C)C(=O)N[C@@H](Cc1ccccc1)C(=O)N[C@@H](CCCCN)C(=O)N[C@@H](CCCCN)C(=O)N[C@H](C(=O)NCC(=O)N[C@@H](C)C(=O)N[C@H](C(=O)N[C@@H](CC(C)C)C(=O)N[C@@H](CCCCN)C(=O)N[C@H](C(=O)N[C@@H](CC(C)C)C(N)=O)C(C)C)C(C)C)[C@@H](C)CC (Decanoyl-KWKLFKKIGAVLKVL-NH2)
